Here are results for 10 molecules from ChEMBL document CHEMBL1201862, “PubChem BioAssay data set” (2004).

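Five compound concentrations were applied to cells in 96-well plates for 48 hours; endpoints were derived by simple linear interpolation of the resulting dose-response curve. At the GI50, growth is halved.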 Active and inactive are the calls of the source. Rule as the data show it: active = GI50 up to about 1.1 µM and inactive = higher.

Some test systems named below: SK-MEL-28; MDA-MB-435; NCI-H522; MCF7; SF-539; LOX IMVI; HCC 2998; MDA-N; SR; M14; UO-31; T47D; SF-295; HCT-116; NCI/ADR-RES; OVCAR-4; OVCAR-8; SNB-75; PC-3; NCI-H23.
What all share (assay): NCI tumour cell line growth inhibition, 48 h

Take `CC1=CC(C/C(C)=C/COc2ccc3ccc(=O)oc3c2)OC1=O` (stereo not given): the GI50 was > 100 µM (inactive) with SK-MEL-28; 54.5 µM (inactive) in the assay with MDA-MB-435; > 100 µM (inactive) in the assay with NCI-H522; > 100 µM (inactive) with MCF7; > 100 µM (inactive) in the assay on SF-539; > 100 µM (inactive) with LOX IMVI. The GI50 in the assay on HCC 2998 was > 100 µM (inactive); in the assay with MDA-N, 68.9 µM (inactive); in the assay on SR, 95.1 µM (inactive); in the assay on M14, > 100 µM (inactive); in the assay with UO-31 it was > 100 µM (inactive); in the assay on T47D, > 100 µM (inactive). Moreover, the GI50 was > 100 µM (inactive) in the assay with SF-295; 92.7 µM (inactive) in the assay with HCT-116; 27.4 µM (inactive) in the assay with NCI/ADR-RES; > 100 µM (inactive) in the assay on OVCAR-4; > 100 µM (inactive) with OVCAR-8; > 100 µM (inactive) in the assay on SNB-75. Moreover, the GI50 in the assay on PC-3 was 68.9 µM (inactive); in the assay with NCI-H23 it was 50.7 µM (inactive).
With `CC(C)(C)OC(=O)C(C1NC(C(=O)O)C(C)(C)S1)N1C(=O)c2ccccc2C1=O` (stereo not given), the GI50 in the assay with SK-MEL-28, with MDA-MB-435, with NCI-H522, in the assay with MCF7, in the assay on SF-539 and in the assay on LOX IMVI was > 100 µM (inactive) each time. The GI50 in the assay on HCC 2998, in the assay with MDA-N, in the assay with SR, with M14, in the assay on UO-31 and in the assay on T47D was > 100 µM (inactive) each time. Besides, the GI50 with SF-295, in the assay with HCT-116, in the assay with NCI/ADR-RES, with OVCAR-4, in the assay on OVCAR-8 and with SNB-75 was > 100 µM (inactive) throughout. Further, the GI50 in the assay with PC-3 and in the assay on NCI-H23 was > 100 µM (inactive) each time.
As for `COC1=CC(=O)C(C2CC(=O)c3c(O)cc(O)cc3O2)=CC1=O` (stereo not given), the GI50 is 16.9 µM (inactive) in the assay with SK-MEL-28; 16.2 µM (inactive) with MDA-MB-435; 15.4 µM (inactive) in the assay with NCI-H522; 22.9 µM (inactive) in the assay with MCF7; 20.7 µM (inactive) with SF-539; 16.3 µM (inactive) in the assay with LOX IMVI. The GI50 with HCC 2998 was 16.8 µM (inactive); in the assay on MDA-N, 15.6 µM (inactive); in the assay on SR it was 5.74 µM (inactive); with M14, 17.7 µM (inactive); with UO-31 it was 18 µM (inactive); in the assay with T47D it was 14.4 µM (inactive). Also, the GI50 in the assay on SF-295 is 19.2 µM (inactive); with HCT-116, 16.1 µM (inactive); with NCI/ADR-RES, 21.7 µM (inactive); in the assay with OVCAR-4, 17.6 µM (inactive); with OVCAR-8, 25.9 µM (inactive); with SNB-75, 23.6 µM (inactive). For the same molecule, the values for the GI50 in the assay with PC-3 and in the assay with NCI-H23 were 16.5 µM (inactive) and 20.5 µM (inactive), respectively.
`CC[C@@H]1CC[C@@H]2[C@H](CC[C@]3(C)[C@@H](OS(=O)(=O)c4ccc(C)cc4)CC[C@@H]23)[C@H]1CO`: the GI50 in the assay with SK-MEL-28 is > 100 µM (inactive); in the assay on MDA-MB-435, > 100 µM (inactive); in the assay on NCI-H522, > 100 µM (inactive); with MCF7, 43.3 µM (inactive); in the assay on SF-539, 81.5 µM (inactive); with LOX IMVI, 23.8 µM (inactive). Also, the GI50 was > 100 µM (inactive) in the assay on HCC 2998; > 100 µM (inactive) in the assay with MDA-N; > 100 µM (inactive) in the assay with SR; 87.3 µM (inactive) in the assay on M14; 21.3 µM (inactive) in the assay on UO-31; 29.2 µM (inactive) in the assay on T47D. The GI50 with SF-295 is > 100 µM (inactive); in the assay on HCT-116, > 100 µM (inactive); in the assay on NCI/ADR-RES it was > 100 µM (inactive); in the assay on OVCAR-4, > 100 µM (inactive); in the assay on OVCAR-8, > 100 µM (inactive); in the assay on SNB-75 it was 91 µM (inactive). Moreover, the results for the GI50 in the assay with PC-3 and in the assay with NCI-H23 were 82 µM (inactive) and > 100 µM (inactive), respectively.
On to `CC1CCC2(CC1)N=C1CCC(C)CC1C1(CCC(C)CC1)N2` (stereo not given), for which the GI50 is > 100 µM (inactive) in the assay on SK-MEL-28; > 100 µM (inactive) in the assay on MDA-MB-435; 69.8 µM (inactive) with NCI-H522; > 100 µM (inactive) in the assay with MCF7; > 100 µM (inactive) in the assay on SF-539; > 100 µM (inactive) in the assay on LOX IMVI. The GI50 with HCC 2998 was 69 µM (inactive); in the assay with MDA-N it was 73.8 µM (inactive); in the assay with SR, 50.8 µM (inactive); in the assay on M14, > 100 µM (inactive); with UO-31, > 100 µM (inactive); in the assay with T47D, 67.3 µM (inactive). Moreover, the GI50 with SF-295 was > 100 µM (inactive); in the assay with HCT-116 it was 36 µM (inactive); with NCI/ADR-RES it was > 100 µM (inactive); in the assay with OVCAR-4, > 100 µM (inactive); in the assay with OVCAR-8, > 100 µM (inactive); in the assay on SNB-75 it was 19.6 µM (inactive). The GI50 in the assay on PC-3 is 41.2 µM (inactive); with NCI-H23, 95.7 µM (inactive).
Consider `COc1ccc2c(c1)-c1[nH]c3ccc(OC)cc3c1CC2`, for which the GI50 is 16.4 µM (inactive) in the assay with SK-MEL-28; 17.4 µM (inactive) in the assay on MDA-MB-435; 4.55 µM (inactive) in the assay with NCI-H522; 24.9 µM (inactive) in the assay with MCF7; 18.2 µM (inactive) in the assay on SF-539; 15.2 µM (inactive) in the assay on LOX IMVI. Also, the GI50 was 15.6 µM (inactive) with HCC 2998; 14.7 µM (inactive) in the assay with MDA-N; 13.6 µM (inactive) with SR; 15 µM (inactive) in the assay with M14; 15.2 µM (inactive) in the assay on UO-31; 8.05 µM (inactive) with T47D. Besides, the GI50 in the assay on SF-295 is 13.1 µM (inactive); with HCT-116, 17.1 µM (inactive); in the assay with NCI/ADR-RES it was 11.4 µM (inactive); with OVCAR-4, 14.9 µM (inactive); with OVCAR-8, 13.9 µM (inactive); with SNB-75 it was 13.5 µM (inactive). Also, the results for the GI50 with PC-3 and with NCI-H23 were 11.4 µM (inactive) and 12.9 µM (inactive), respectively.
`COc1ccccc1N1C(=O)/C(=C\c2cccc(Oc3ccccc3)c2)SC1c1ccccc1` (stereo not given): the GI50 in the assay on SK-MEL-28 was 46.9 µM (inactive); in the assay with MDA-MB-435, 28.6 µM (inactive); with NCI-H522 it was 24.1 µM (inactive); in the assay on MCF7, 21.5 µM (inactive); in the assay on SF-539, 34.5 µM (inactive); with LOX IMVI it was 21.6 µM (inactive). The GI50 was 25.7 µM (inactive) in the assay on HCC 2998; 23.9 µM (inactive) in the assay with MDA-N; 19.6 µM (inactive) in the assay on SR; 24.4 µM (inactive) in the assay with M14; 51.3 µM (inactive) in the assay with UO-31; 27.2 µM (inactive) with T47D. Moreover, the GI50 in the assay on SF-295 is 18.7 µM (inactive); in the assay on HCT-116, 16.5 µM (inactive); in the assay on NCI/ADR-RES, 59.6 µM (inactive); in the assay with OVCAR-4, 30.6 µM (inactive); with OVCAR-8, 31.3 µM (inactive); in the assay on SNB-75, 39.6 µM (inactive). Moreover, the GI50 with PC-3 is 58.5 µM (inactive); with NCI-H23 it was 18.3 µM (inactive).
As for `COC(=O)c1c2c(c3[nH]c4ccccc4c3c1C(=O)OC)C(=O)C1=C(C2=O)C2(Cl)C(Cl)C(Cl)C1(Cl)C2(Cl)Cl` (stereo not given), the GI50 is 1.56 µM (inactive) in the assay on SK-MEL-28; 1.07 µM (active) in the assay on MDA-MB-435; 1.38 µM (inactive) in the assay with NCI-H522; 0.705 µM (active) with MCF7; 2.07 µM (inactive) with SF-539; 1.85 µM (inactive) in the assay with LOX IMVI. The GI50 in the assay with HCC 2998 is 2.91 µM (inactive); with MDA-N it was 0.6 µM (active); in the assay on SR it was 0.489 µM (active); in the assay with M14 it was 1.46 µM (inactive); in the assay with UO-31, 2.82 µM (inactive); in the assay on T47D, 1.35 µM (inactive). Moreover, the GI50 in the assay with SF-295 was 3.63 µM (inactive); in the assay on HCT-116 it was 2.02 µM (inactive); with NCI/ADR-RES, 2.62 µM (inactive); in the assay with OVCAR-4 it was 1.84 µM (inactive); in the assay with OVCAR-8 it was 1.75 µM (inactive); in the assay with SNB-75, 2.39 µM (inactive). Also, the GI50 with PC-3 was 1.86 µM (inactive); in the assay on NCI-H23, 1.7 µM (inactive).
Take `CSC(=S)CC(O)[C@@H]1CC2c3ccccc3C1c1ccccc12` (stereo not given in full): the GI50 in the assay with SK-MEL-28 is 21.7 µM (inactive); with MDA-MB-435, 11.3 µM (inactive); in the assay on NCI-H522 it was 2.82 µM (inactive); in the assay on MCF7 it was 13.9 µM (inactive); in the assay with SF-539, 17.9 µM (inactive); with LOX IMVI it was 6.35 µM (inactive). Moreover, the GI50 was 12.8 µM (inactive) in the assay on HCC 2998; 11.7 µM (inactive) in the assay on MDA-N; 3.46 µM (inactive) in the assay on SR; 12.7 µM (inactive) in the assay on M14; 11.7 µM (inactive) in the assay with UO-31; 5.5 µM (inactive) in the assay on T47D. For the same molecule, the GI50 in the assay with SF-295 is 16.6 µM (inactive); with HCT-116, 8.11 µM (inactive); in the assay with NCI/ADR-RES, 12.6 µM (inactive); in the assay on OVCAR-4, 12.1 µM (inactive); with OVCAR-8, 14.9 µM (inactive); in the assay with SNB-75 it was > 10 µM (inactive). The GI50 in the assay with PC-3 is 5.83 µM (inactive); in the assay on NCI-H23, 7.11 µM (inactive).
Take `O=C(Nc1ccc(Cl)cc1)NS(=O)(=O)c1coc2cc(F)ccc2c1=O`: the GI50 in the assay with SK-MEL-28 is > 100 µM (inactive); with MDA-MB-435, 30.6 µM (inactive); in the assay on NCI-H522 it was 67.9 µM (inactive); in the assay with MCF7, > 100 µM (inactive); in the assay on SF-539, 87.7 µM (inactive); in the assay with LOX IMVI, > 100 µM (inactive). Also, the GI50 is 80.4 µM (inactive) in the assay on HCC 2998; > 100 µM (inactive) in the assay with MDA-N; 95.9 µM (inactive) in the assay with SR; > 100 µM (inactive) in the assay on M14; 86.3 µM (inactive) in the assay on UO-31; > 100 µM (inactive) with T47D. Moreover, the GI50 in the assay on SF-295 was > 100 µM (inactive); with HCT-116, > 10 µM (inactive); in the assay with NCI/ADR-RES, > 100 µM (inactive); with OVCAR-4, > 100 µM (inactive); in the assay on OVCAR-8, > 100 µM (inactive); in the assay on SNB-75, > 100 µM (inactive). Besides, the GI50 with PC-3 and with NCI-H23 was > 100 µM (inactive) in each case.
